Measured values reported in patent US9278968B2, “Imidazopyridine compounds” (ASTELLAS PHARMA INC., priority 2012, dated 2016).

Assays:
[1] = molecular target: human purified sGC (heterodimer of sGCα1 and sGCβ1) (Homo sapiens (Human), UniProt Q02108+Q02153); experiment: sGC activation test (cGMP produced, HTRF); assay type: biochemical; settings: maximum activity of Preparation Example 200 compound (maximum 100 μM) taken as 100%; with SNP; read-out: EC50 (concentration giving 50% of maximum activity)
Description: The activity of sGC was evaluated by measuring the amount of cGMP produced by human purified sGC.
Using an sGCα 1 gene (NCBI accession No. BC028384.2) and an sGCβ1 gene (NCBI accession No. BC047620.1), an N-terminal FLAG tag-fused sGCα1 and an sGCβ1 expression baculovirus were prepared. These viruses were transfected into insect cells Sf9 (Cat. No. 11496-015, Gibco) to express a protein. From the cell lysates of the insect cells, heterodimers of the N-terminal FLAG tag-fused sGCα1 and sGCβ1 were purified with an M2 Affinity Gel (Sigma-Aldrich, Inc.) to obtain a human sGC.
An Example compound was dissolved in DMSO and diluted 20-fold with ultrapure water. 2 μL of the diluted Example compound solution (maximum concentration of 100 μM), 2 μL of a substrate solution [0.5 μM triethanolamine buffer solution, 0.03 μM dithiothreitol, 0.01 μM GTP, 0.04 μM MgCl2, and 0.03 μM sodium nitroprusside (SNP)], and 6 μL of a human enzyme suspension were added to 384-well plates (manufactured by Greiner Bio-One), and incubated at room temperature for one hour. The measurement of the amount of cGMP was carried out, using an HTRF reagent (Cisbio).
The sGC activation action of the Example compound was calculated as an Example compound concentration which gives 50% of a maximum activity (EC50), in which the maximum activity by the addition of a compound shown in Preparation Example 200, 8-(cyclohexylmethoxy)-N-[(1R)-2-hydroxy-1-phenylethyl]-2-methylimidazo[1,2-a]pyridine-3-carboxamide hydrochloride (maximum 100 μM), is taken as 100%. Further, the maximum activity of sGC with the addition of 8-(cyclohexylmethoxy)-N-[(1R)-2-hydroxy-1-phenylethyl]-2-methylimidazo[1,2-a]pyridine-3-carboxamide hydrochloride is 10-fold or more relative to the sGC activation without the addition of the compound, and it is recognized that the compound has a good sGC activating action. […] The test results of some Example compounds that are the compounds of the formula (I) of the present invention are shown below. Further, in Tables, Ex. represents Example number.

[2] = system: hind limb blood flow in rats anesthetized with pentobarbital; experiment: Blood flow increasing action in vivo (hind limb blood flow, anesthetized rats); parameters: species or system Wistar male rats; settings: oral, 2 hours after administration, effective when blood flow rate 130% or more of solvent group
Description: The hind limb blood flow increasing action in rats anesthetized with pentobarbital was confirmed by the following test method.
Wistar male rats, 11- to 14-week (Japan SLC, Inc.) were used. An administration liquid was prepared by adding N,N-dimethyl formamide, Polyethylene Glycol 400, TWEEN 80, a 0.5% methyl cellulose aqueous solution, a 0.5 M aqueous sodium hydrogen carbonate solution, and 0.1 M hydrochloric acid to the test compound and dissolving the Example compound in an appropriate manner depending on the compound. The prepared administration liquid was orally administered, and 2 hours later, the hind limb blood flow increasing action was evaluated under anesthesia with intraperitoneally administration of 60 mg/kg of pentobarbital The hind limb blood flow was measured using a laser blood flow imaging device (PIM II Integral). By taking the average blood flow rate of a group with the administration of a solvent as 100%, the compound was evaluated to be effective when the blood flow rate was 130% or more by the administration of the compound.

[3] = system: average blood pressure of rats; experiment: Measurement of antihypertensive effect in vivo; parameters: species or system Wistar male rats; settings: oral, single dose 3 mg/kg
Description: As the animals, Wistar male rats, 13- to 18-week (Japan SLC, Inc.) were used. Three days prior to administration of a test compound, a cannula (PE-50, Becton, Dickinson and Company, Japan) filled with heparin physiological saline (200 U/mL, Ajinomoto Pharmaceuticals Co., Ltd.) was inserted and placed in the common carotid artery under anesthesia with intraperitoneal administration of 60 mg/kg of pentobarbital. The other end of the cannula was subcutaneously exposed to the back of the neck. After the recovery period, the placed cannula was connected to a pressure transducer (Life Kit DTS DX-100, Nihon Kohden Corporation) to record the blood pressure waveform through an amplifier (AP-641G, Nihon Kohden Co., Ltd.) and PowerLab (ML870 PowerLab8/30 (AD Instruments Japan)). The heart rate was calculated using a heart rate measuring unit (AT-601G, Nihon Kohden Co., Ltd.). After stabilization of the blood pressure, the test compound was orally administered one time to measure the blood pressure and the heart rate over time. The test compounds were administered by appropriately adding N,N-dimethylformamide, Polyethylene Glycol 400, TWEEN 80, a 0.5% aqueous methylcellulose solution, and a 0.5 M aqueous sodium hydrogen carbonate solution, and 0.1 M hydrochloric acid therein according to the compounds and dissolving it.
Further, the administration doses in Tables represent the administration doses for oral administration, and for example, 3 means 3 mg/kg. Further, the blood pressure reduction represents a maximum change value from the value before administration in the average blood pressure, and for example, −63 indicates reduction by 63 mmHg.

human purified sGC (heterodimer of sGCα1 and sGCβ1), sequence (Q02108 whole entry): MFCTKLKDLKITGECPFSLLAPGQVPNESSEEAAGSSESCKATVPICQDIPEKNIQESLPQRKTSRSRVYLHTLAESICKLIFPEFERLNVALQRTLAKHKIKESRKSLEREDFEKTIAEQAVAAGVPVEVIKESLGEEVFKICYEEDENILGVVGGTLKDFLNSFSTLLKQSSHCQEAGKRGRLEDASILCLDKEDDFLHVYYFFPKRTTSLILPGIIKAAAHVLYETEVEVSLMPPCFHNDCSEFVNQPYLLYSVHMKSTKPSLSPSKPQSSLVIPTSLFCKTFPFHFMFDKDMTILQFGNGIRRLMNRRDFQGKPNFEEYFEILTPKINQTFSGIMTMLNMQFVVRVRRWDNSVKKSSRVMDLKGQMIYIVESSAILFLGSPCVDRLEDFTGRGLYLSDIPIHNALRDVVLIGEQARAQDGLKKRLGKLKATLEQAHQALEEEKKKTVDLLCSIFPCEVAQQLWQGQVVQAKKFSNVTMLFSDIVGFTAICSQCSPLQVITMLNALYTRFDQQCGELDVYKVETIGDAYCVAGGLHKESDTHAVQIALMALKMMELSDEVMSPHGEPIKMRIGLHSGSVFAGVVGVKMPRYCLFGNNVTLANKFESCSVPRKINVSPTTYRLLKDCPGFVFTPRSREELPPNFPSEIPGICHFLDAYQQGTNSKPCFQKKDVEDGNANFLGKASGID
human purified sGC (heterodimer of sGCα1 and sGCβ1), sequence (Q02153 whole entry): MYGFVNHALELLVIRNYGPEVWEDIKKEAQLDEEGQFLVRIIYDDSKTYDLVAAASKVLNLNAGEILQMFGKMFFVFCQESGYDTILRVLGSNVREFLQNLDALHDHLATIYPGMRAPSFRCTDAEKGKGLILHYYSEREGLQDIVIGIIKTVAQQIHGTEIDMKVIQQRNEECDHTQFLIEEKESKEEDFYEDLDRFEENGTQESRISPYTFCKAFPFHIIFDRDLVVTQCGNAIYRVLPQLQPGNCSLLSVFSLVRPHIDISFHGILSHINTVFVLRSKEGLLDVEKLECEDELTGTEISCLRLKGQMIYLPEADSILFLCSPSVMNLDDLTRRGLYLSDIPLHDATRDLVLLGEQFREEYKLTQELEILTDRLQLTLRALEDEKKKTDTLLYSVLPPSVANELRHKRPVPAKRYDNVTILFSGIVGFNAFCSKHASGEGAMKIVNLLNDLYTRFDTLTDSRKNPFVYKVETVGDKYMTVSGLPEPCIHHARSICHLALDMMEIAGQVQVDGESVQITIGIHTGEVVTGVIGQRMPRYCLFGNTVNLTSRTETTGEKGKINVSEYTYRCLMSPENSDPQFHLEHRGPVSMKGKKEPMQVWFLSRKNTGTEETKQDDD

SMILES	EC50 [1]	hind limb blood flow increasing action ([2]; 1 mg/kg)	hind limb blood flow increasing action ([2]; 3 mg/kg)	further results
CCc1nnc(C(C)(CO)NC(=O)c2c(C)nc3c(OCc4c(F)cccc4F)cccn23)o1 (stereo not drawn) [Example 1, 8-[(2,6-difluorobenzyl)oxy]-N-[2-(5-ethyl-1,3,4-oxadiazol-2-yl)-1-hydroxypropan-2-yl]-2-methylimidazo[1,2-a]pyridine-3-carboxamide]	5.5 µM	exhibited a blood flow increasing action		
Cc1ncc(C(C)(CO)NC(=O)c2c(C)nc3c(OCc4c(F)cccc4F)cccn23)s1 (stereo not drawn) [Example 2, 8-[(2,6-difluorobenzyl)oxy]-N-[1-hydroxy-2-(2-methyl-1,3-thiazol-5-yl)propan-2-yl]-2-methylimidazo[1,2-a]pyridine-3-carboxamide]	2.6 µM		exhibited a blood flow increasing action	Blood pressure reduction (maximum change from value before administration in average blood pressure) [3]: −56 mmHg
Cc1nc2c(OCc3c(F)cccc3F)cccn2c1C(=O)NC(C)(CO)c1nnn(C(F)F)n1 (stereo not drawn) [Example 6, 8-[(2,6-difluorobenzyl)oxy]-N-{2-[2-(difluoromethyl)-2H-tetrazol-5-yl]-1-hydroxypropan-2-yl}-2-methylimidazo[1,2-a]pyridine-3-carboxamide]	1.7 µM			hind limb blood flow increasing action ([2]; 0.1 mg/kg): exhibited a blood flow increasing action
Cc1nc2c(OCc3c(F)cccc3F)cccn2c1C(=O)NC(C)(CO)c1nnn(C)n1 (stereo not drawn) [Example 7a, 8-[(2,6-difluorobenzyl)oxy]-N-[1-hydroxy-2-(2-methyl-2H-tetrazol-5-yl)propan-2-yl]-2-methylimidazo[1,2-a]pyridine-3-carboxamide]	9.6 µM		exhibited a blood flow increasing action	
CCn1nnc(C(C)(CO)NC(=O)c2c(C)nc3c(OCc4c(F)cccc4F)cccn23)n1 (stereo not drawn) [Example 8, 8-[(2,6-difluorobenzyl)oxy]-N-[2-(2-ethyl-2H-tetrazol-5-yl)-1-hydroxypropan-2-yl]-2-methylimidazo[1,2-a]pyridine-3-carboxamide]	5.7 µM		exhibited a blood flow increasing action	Blood pressure reduction (maximum change from value before administration in average blood pressure) [3]: −29 mmHg
Cc1nc2c(OCc3c(F)cccc3F)cccn2c1C(=O)N[C@@](C)(CO)c1ccccn1 [Example 11]	1.3 µM	exhibited a blood flow increasing action		
Cc1nc2c(OCc3c(F)cccc3F)cccn2c1C(=O)N[C@@](C)(CO)c1ccccc1F [Example 18]	1.6 µM	exhibited a blood flow increasing action		
Cc1nc2c(OCc3c(F)cccc3F)cccn2c1C(=O)N[C@@](C)(CO)c1ncc(CO)s1 [Example 19]	3.6 µM	exhibited a blood flow increasing action		
Cc1nc2c(OCc3c(F)cccc3F)cccn2c1C(=O)NCc1ccccc1[C@@H](O)[C@@H](C)O [Example 31]	4.9 µM		exhibited a blood flow increasing action	
Cc1nnc(C(C)(CO)NC(=O)c2c(C)nc3c(OCc4c(F)cccc4F)cccn23)o1 (stereo not drawn) [Example 35]	6.4 µM			hind limb blood flow increasing action ([2]; 0.3 mg/kg): exhibited a blood flow increasing action
Cc1nc2c(OCc3c(F)cccc3F)cccn2c1C(=O)NC(C)(CO)c1ccn(C)n1 (stereo not drawn) [Example 36]	11 µM	exhibited a blood flow increasing action		
Cc1nnc(C(C)(CO)NC(=O)c2c(C)nc3c(OCc4c(F)cccc4F)cccn23)s1 (stereo not drawn) [Example 37]	7.1 µM	exhibited a blood flow increasing action		
Cc1cnc(C(C)(CO)NC(=O)c2c(C)nc3c(OCc4c(F)cccc4F)cccn23)o1 (stereo not drawn) [Example 38]	2.5 µM	exhibited a blood flow increasing action		
Cc1noc(C(C)(CO)NC(=O)c2c(C)nc3c(OCc4c(F)cccc4F)cccn23)n1 (stereo not drawn) [Example 39]	4.6 µM	exhibited a blood flow increasing action		
Cc1csc(C(C)(CO)NC(=O)c2c(C)nc3c(OCc4c(F)cccc4F)cccn23)n1 (stereo not drawn) [Example 40]	3.8 µM		exhibited a blood flow increasing action	
Cc1nc(C(C)(CO)NC(=O)c2c(C)nc3c(OCc4c(F)cccc4F)cccn23)no1 (stereo not drawn) [Example 41]	5.3 µM			hind limb blood flow increasing action ([2]; 0.3 mg/kg): exhibited a blood flow increasing action
Cc1nc2c(OCc3c(F)cccc3F)cccn2c1C(=O)NC(C)(CO)c1ccc(F)c(CO)c1 (stereo not drawn) [Example 52]	2.2 µM		exhibited a blood flow increasing action	
Cc1nc2c(OCc3c(F)cccc3F)cccn2c1C(=O)N[C@]1(c2ccccn2)C[C@@H](O)[C@@H](O)C1 [Example 67]	24 µM		exhibited a blood flow increasing action	
Cc1cnc([C@@]2(NC(=O)c3c(C)nc4c(OCc5c(F)cccc5F)cccn34)C[C@@H](O)[C@@H](O)C2)s1 [Example 69]	4.6 µM		exhibited a blood flow increasing action	
Cc1nc2c(OCc3c(F)cccc3F)cccn2c1C(=O)NC(CO)(CO)c1ccc(Cl)cn1 [Example 70]	3.8 µM	exhibited a blood flow increasing action		
Cc1cnc(C(CO)(CO)NC(=O)c2c(C)nc3c(OCc4c(F)cccc4F)cccn23)s1 [Example 72]	2.7 µM	exhibited a blood flow increasing action		
Cc1nc2c(OCc3c(F)cccc3F)cccn2c1C(=O)NC(C)(CO)c1nnn(C2CC2)n1 (stereo not drawn) [Example 76]	5.8 µM		exhibited a blood flow increasing action	
Cc1cnc([C@](C)(CO)NC(=O)c2c(C)nc3c(OCc4c(F)cccc4F)cccn23)s1 [Example 77]	1.3 µM			hind limb blood flow increasing action ([2]; 0.3 mg/kg): exhibited a blood flow increasing action
CCn1nnc([C@H](CO)NC(=O)c2c(C)nc3c(OCc4c(F)cccc4F)cccn23)n1 [Example 81]	16 µM	exhibited a blood flow increasing action		
Cc1nc2c(OCc3c(F)cccc3F)cccn2c1C(=O)N[C@@H](CO)c1nnn(C(F)F)n1 [Example 83]	2.7 µM	exhibited a blood flow increasing action		
Cc1nc2c(OCc3c(F)cccc3F)cccn2c1C(=O)NC(C)(CO)c1nnc(C(F)(F)F)o1 (stereo not drawn) [Example 91]	1.5 µM			hind limb blood flow increasing action ([2]; 0.3 mg/kg): exhibited a blood flow increasing action
